Read-outs that look alike come from different tables or passages of the source.
Columns and labels:
[1] = tested on: SNU-C5 colorectal carcinoma cells; test: Anti-proliferative effect on SNU-C5 cells (CellTiter96); format: cell-based; conditions: read-out: proliferation, percent of control; for activity at 1 µM: NDE 1 μM; for activity at 10 µM: NDE 10 μM; for activity at 100 µM: NDE 100 μM
Experimental: (§1) All primary cells and cell lines were commercially available. The transformed cell lines were grown in Dulbecco's Modified Eagle Media supplemented with 2 mM L-glutamine, 50 I.U. penicillin, 50 μg/ml streptomycin, nonessential amino acids and 10% heat-inactivated fetal bovine serum. HASM, HAEC and NHBE cells were cultured exactly as described by the commercial provider (Clonetics, San Diego, Calif.). All cell lines were grown at 37° C. in 5% CO2, with the media being changed every 48 hours.
(§2) For the experimental assays, cells were plated in 96-well plates and grown until ˜35% confluency was achieved. For the transformed cell lines, cells were plated at low density and grown for 72 hours prior to being stimulated, whereas the non-transformed cells were plated at a higher density and grown for 24 hours prior to being stimulated.
(§3) Cells were treated with dithiocarbamate (0.1-100 μM)±5FU (0.01-10 μM) and retreated after 48 hours when media was changed. Cell growth was assessed using the CellTiter96® assay system from Promega (Madison, Wis.). Each experimental condition was performed in triplicate or quadruplicate, with the number of experiments for each cell line being three.
(§4) Statistical significance was assessed using an ANOVA with the appropriate post-hoc analysis as well as Students t-tests. *=p<0.05 when compared to control-treated (DMSO) cells. #=p<0.05 when compared to 5FU-treated cells.

[2] = tested on: DLD-1 colorectal carcinoma cells; test: Anti-proliferative effect on DLD-1 cells (CellTiter96); format: cell-based; conditions: Homo sapiens, read-out: proliferation, percent of control; for activity at 1 µM: NDE 1 μM; for activity at 10 µM: NDE 10 μM; for activity at 100 µM: NDE 100 μM
Experimental: as §1, §2, §3, §4

VCAM-1 = VCAM-1 assay: enzyme immunoassay of TNF-α induced VCAM-1 expression in endothelial cells; format: cell-based, Human; conditions: Homo sapiens, Endothelial cell; HAEC, TNF-α 1 ng/ml, approximately 16 hours; read-out: VCAM-1 IC50
Experimental: The VCAM-1 assay is an enzyme immunoassay to detect tumor necrosis factor alpha (TNF-α) induced Vascular Adhesion Molecule (VCAM-1) expression in endothelial cells.
Human endothelial cells (HAEC) were purchased from Clonetics and maintained in EGM media (Clonetics) supplemented with 5% fetal bovine serum (FBS). In a typical experiment, cells were seeded in 96-well plates. The next day cells were stimulated with TNF-α (1 ng/ml) purchased from Boehringer Mannheim in the presence or absence of compounds dissolved in dimethylsulphoxide (DMSO). To establish a dose curve for each compound, four concentrations in 2 fold increments were used. Cells were exposed to TNF-α and compounds for approximately 16 hours. The next day, cells were examined under microscope to score for visual signs of toxicity.
Media was discarded and the cells were washed once with Hanks buffered saline solution (HBSS)/phosphate buffered solution (PBS) 91:1). Primary mouse monoclonal antibody against VCAM-1 purchased from Southern Biotechnology Associates (0.25 μg/ml in HBSS/PBS+5% FBS) was added and incubated at 37° C. for 30 minutes. Cells were washed with HBSS/PBS three times, and secondary antibody horse radish peroxidase (HRP)-conjugated goat anti-mouse IgG purchased from Southern Biotechnology Associates (1:500 in HBSS/PBS+5% FBS) was added and incubated at 37° C. for 30 minutes. Cells were washed with HBSS/PBS four times and peroxidase substrate 3.3′,5,5′-tetramethyl-benzidine (TMB) was added and incubated in the dark at room temperature until there was adequate blue color development. The length of incubation time was typically 5-15 minutes. 2 N sulfuric acid was added to stop the color development and the data was collected by reading the absorbance at O.D. 450 nm. The result was expressed as the percentage of control sample (cells stimulated by TNF without any compound).

15-LOX-2 = test: 15-Lipoxygenase Form-2 assay: immunoblot of TNF-α and IL-4 co-induced 15-LOX-2 expression in NHBE cells; format: cell-based; conditions: Homo sapiens, TNF-α 10 ng/ml + IL-4 20 ng/ml, 16-20 hours
Experimental: The 15-Lipoxygenase Form-2 (15-LOX-2) Assay is an immunoblot assay to measure tumor necrosis factor alpha (TNF-α) and interleukin-4 (IL-4) co-induced expression of 15-LOX-2 in Normal Human Epithelial Cells.
Normal human bronchial epithelial cells (NHBE) were purchased from Clonetics. They were cultured in BEGM (Clonetics) media without retinoic acid. In a typical experiment, the cells were seeded in 24-well plates. Media was changed to BEGM without retinoic acid (RA) and hydrocortisone (HC) 24 hour before dosing. Cells were then exposed to TNF-α (10 ng/ml) and IL-4 (20 ng/ml) purchased from Boehringer Mannheim in the absence or presence of compounds in fresh BEGM without RA and HC for 16-20 hours at 37° C. To establish a dose curve for each compound, three concentrations in 2 fold increments were used. All compounds were dissolved in DMSO and the final concentration of DMSO was 0.2%.
Cells were washed with cold 1×PBS three times and then lysed by 100 μl of Tris-Glycine SDS sample buffer (NOVEX). Lysates were fractionated by 4-20% gradient SDS-PAGE (NOVEX), transferred onto nitrocellulose filters (MSI) and incubated with the filters in blocking buffer (5% Blotto in 1×Tris buffered saline (TBS)+0.05% Tween 20) for 1 hour with gentle shaking. […]

Question: How did the activity at 1 µM ([1]; 24 HOURS) turn out when COC(=O)CCCSC(=S)NCC1CCCO1 (centres unmarked) [NDE, 4-(tetrahydrofuran-2-ylmethylthiocarbamoylsulfanyl)-butyric acid methyl ester] was run?
Answer: 138 ± 24.2%

Question: And the activity at 1 µM ([1]; 48 HOURS)?
Answer: 105 ± 7.42%

Question: And the activity at 1 µM ([1]; 72 HOURS)?
Answer: 127 ± 16.4%

Question: And the activity at 10 µM ([1]; 24 HOURS)?
Answer: 93.4 ± 15.9%

Question: What about the activity at 10 µM ([1]; 48 HOURS) of the same compound?
Answer: 70.5 ± 8.42%

Question: And the activity at 10 µM ([1]; 72 HOURS)?
Answer: 59.2 ± 4.1%

Question: And the activity at 100 µM ([1]; 24 HOURS)?
Answer: 60 ± 10.8%

Question: What about the activity at 100 µM ([1]; 48 HOURS) of the same compound?
Answer: 26.3 ± 8.64%

Question: What about the activity at 100 µM ([1]; 72 HOURS) of the same compound?
Answer: 13.6 ± 1.31%

Question: And the activity at 1 µM ([2]; 24 HOURS)?
Answer: 116 ± 3.72%

Question: And the activity at 1 µM ([2]; 48 HOURS)?
Answer: 107 ± 7.55%

Question: And the activity at 1 µM ([2]; 72 HOURS)?
Answer: 133 ± 10.3%

Question: And the activity at 10 µM ([2]; 24 HOURS)?
Answer: 97.1 ± 1.79%

Question: And the activity at 10 µM ([2]; 48 HOURS)?
Answer: 104 ± 13.3%

Question: And the activity at 10 µM ([2]; 72 HOURS)?
Answer: 142 ± 14.9%

Question: And the activity at 100 µM ([2]; 24 HOURS)?
Answer: 53.8 ± 5.28%

Question: What about the activity at 100 µM ([2]; 48 HOURS) of the same compound?
Answer: 39.8 ± 6.27%

Question: And the activity at 100 µM ([2]; 72 HOURS)?
Answer: 0.27 ± 0.27%

Question: And the IC50 (VCAM-1)?
Answer: 1.5 µM

Question: What about the IC50 (15-LOX-2) of the same compound?
Answer: 4.5 µM

From patent US6747061B2, “N-substituted dithiocarbamates for the treatment of biological disorders” (AtheroGenics, Inc., priority 2000, dated 2004)
